The EC50 is the concentration needed to bring the measured effect to its halfway point.

The record followed here is publication PMC8100298, “Histone deacetylase inhibitor resminostat in combination with sorafenib counteracts platelet-mediated pro-tumoral effects in hepatocellular carcinoma” (Scientific Reports, 2021).

Where two headings read alike, the source gives them in different places.

Holding throughout (experiment): Efficacy screening assay
Type in all cases: cell-based

In one test the test system is MDAMB231. The conditions noted are these: MDAMB231, breast. The method, then: (§1) The experiment was performed by Oncolead GmbH & Co. KG (Karlsfeld , Germany), based on a standardized screening procedure . Cell lines were purchased directly from the ATCC, NCI and DSMZ cell line c ollections. Cells used for the study had undergone less than 20 passages. To ensure the absence of potential contamination and wrong assignment, all cell lines were tested using a whole genome assay (Agilent, USA). All cell lines were grown as recommended by the suppliers and with addition of 100 U/mL penicillin G and 100 µg/mL; streptomycin. Cell growth and treatments were performed in Nunclon D 96 -well plates (NUNC, Germany). The optimal seeding density for each cell line was determined to ensure exponential growth for the duration of the experiment. All cells growing without anti-cancer agents were sub-conﬂuent by the end of the treatment, as determined by visual inspection.
(§2) After an initial 24 h pre-growth period, the compounds were added. The vehicle concentration […]
(§3) was 0.1% DMSO. After incubation at 37°C for 72 h, the culture medium was aspirated, and the cells were precipitated by the addition of 10% trichloroacetic acid (Sigma-Aldrich, Missouri, US). After overnight incubation at 4°C, the plates were washed three times with deionized water. The precipitates were then stained with SRB (0.4% wt/v sulforhodamine B solution in 1% acetic acid, Sigma-Aldrich, Missouri, US). Afterwards, the plates were washed six times with 1% acetic acid to remove unbound stain. After drying the plates at room temperature, the bound SRB was solubilized with 10 mM Tris base and the optical density was measured at 520 nm using a Victor2 plate reader (Perkin Elmer, Germany). Blank OD values were subtracted from mean OD values for each concentration. The nonlinear curve ﬁtting and EC50 calculations were per formed using XLﬁt and algorithm “205” (ID Business […]
(§4) Multiplicity adjusted p-values with 95% confidence interval was applied. For the invasion assays in Figure 4, one-way ANOVA with multiple comparison testing (Tukey) was performed. Multiplicity adjusted p-values with 95% confidence interval was applied. The adjusted p-values comparing vehicle control without vs. with platelets and compound

A further test concerns JIMT1. The conditions noted are these: JIMT1, breast. The method, then: as §1, §2, §3, §4
The next test concerns MHHES1. The conditions noted are these: MHHES1, bone. How it is done: as §1, §2, §3, §4
For another test, the system named is MCF7. The conditions noted are these: MCF7, breast. How it is done: as §1, §2, §3, §4
In another test the test system is IMR90. The conditions noted are these: Homo sapiens, IMR-90, IMR90, lung, 72 h. The method, then: as §1, §2, §3, §4
Another test concerns IGROV1. The conditions noted are these: IGROV1, ovary. How it is done: as §1, §2, §3, §4

As to `CN(C)Cc1ccc(S(=O)(=O)n2ccc(/C=C/C(=O)NO)c2)cc1` [resminostat, Resminostat], the EC50 was 2340 nM in the test with MDAMB231 (Homo sapiens, MDA-MB-231, 72 h, log of EC50, negative, read-out: log(EC50) (converted)); 2360 nM in the test on MDAMB231 (Homo sapiens, MDA-MB-231, 72 h, read-out: EC50); 2360 nM in the test with MDAMB231 (72 h, read-out: EC50); 3020 nM with JIMT1 (Homo sapiens, JIMT-1, 72 h, log of EC50, negative, read-out: log(EC50) (converted)); 3030 nM in the test with JIMT1 (Homo sapiens, JIMT-1, 72 h, read-out: EC50); 3030 nM with JIMT1 (72 h, read-out: EC50). Also, the EC50 in the test on MHHES1 (Homo sapiens, MHH-ES-1, 72 h, log of EC50, negative, read-out: log(EC50) (converted)) is 1380 nM; in the test on MHHES1 (Homo sapiens, MHH-ES-1, 72 h, read-out: EC50) it was 1380 nM; in the test on MHHES1 (72 h, read-out: EC50) it was 1380 nM; in the test with MCF7 (Homo sapiens, MCF7, 72 h, log of EC50, negative, read-out: log(EC50) (converted)), 1700 nM; in the test on MCF7 (Homo sapiens, MCF7, 72 h, read-out: EC50) it was 1690 nM; with MCF7 (72 h, read-out: EC50), 1690 nM. For the same molecule, the EC50 is 11000 nM in the test on IMR90 (log of EC50, negative, read-out: log(EC50) (converted)); 10900 nM in the test on IMR90 (read-out: EC50); 1910 nM with IGROV1 (Homo sapiens, IGROV-1, 72 h, log of EC50, negative, read-out: log(EC50) (converted)); 1880 nM in the test with IGROV1 (Homo sapiens, IGROV-1, 72 h, read-out: EC50); 1880 nM in the test on IGROV1 (72 h, read-out: EC50).
